Experimental data: US20250130239A1, “PROTEIN DEGRADER” (University of Dundee, priority 2021, published 2025)

Legend:
[1] = target: T1, Brd3 (Homo sapiens, UniProt Q15059); experiment: Off-target degradation of Brd3 (western blot) in BromoTag-Brd2 HEK293 cells; type: cell-based
T1 construct: endogenous Brd3 and Brd4; endogenous in cells; host or cells: heterozygous BromoTag-Brd2 HEK293 cells
Method: Dose-response Degradation Assays. All dose-response degradation assays were performed on the genotype verified heterozygous BromoTag-Brd2 HEK293 cell line. Heterozygous BromoTag-Brd2 HEK293 cells were plated at a density of 5×10^5 cells per well of a six healthy plate a day before initiation of the titration experiment. PROTAC compounds were dissolved in DMSO at a concentration of 10 mM, from these stock concentrations, PROTAC compounds were diluted to appropriate concentrations using DMSO in the range of 10 μM-1 nM. The compounds were then added to a 2 mL of DMEM (Invitrogen, Carlsebad, CA, USA) supplemented with 10% (v/v) Fetal bovine serum (FBS) (Thermo Fisher, Waltham, MA, USA) and 1% (v/v) penicillin/streptomycin (pen/strep) (#15140122, Thermo Fisher, Waltham, MA, USA) and added to the cells at initiation of the experiment. Control compounds such as MZ1, cis-MZ1 were similarly dissolved in DMSO to the appropriate concentration. […]
(§1) Western Blotting. […] Total protein quantity was determined using the BCA protein assay (#23225, Pierce, Rockford, Illinois). Protein concentration was determined using the BCA assay (ThermoFisher Scientific, 23225). […] All western blots were analysed for band intensities using Image Lab from Bio-Rad (LI-COR, Biosciences). The data extracted from these blots were then plotted and analysed using Prism (v. 8.2.0, GraphPad).

[2] = tested on: untagged Brd2 and endogenous Brd3 and Brd4; experiment: Off-target degradation of endogenous BET proteins (western blot) in BromoTag-Brd2 HEK293 cells; type: cell-based, human; conditions: 1 nM to 10 μM; 6 h
Method: Dose-response Degradation Assays. All dose-response degradation assays were performed on the genotype verified heterozygous BromoTag-Brd2 HEK293 cell line. Heterozygous BromoTag-Brd2 HEK293 cells were plated at a density of 5×10^5 cells per well of a six healthy plate a day before initiation of the titration experiment. PROTAC compounds were dissolved in DMSO at a concentration of 10 mM, from these stock concentrations, PROTAC compounds were diluted to appropriate concentrations using DMSO in the range of 10 μM-1 nM. The compounds were then added to a 2 mL of DMEM (Invitrogen, Carlsebad, CA, USA) supplemented with 10% (v/v) Fetal bovine serum (FBS) (Thermo Fisher, Waltham, MA, USA) and 1% (v/v) penicillin/streptomycin (pen/strep) (#15140122, Thermo Fisher, Waltham, MA, USA) and added to the cells at initiation of the experiment. Control compounds such as MZ1, cis-MZ1 were similarly dissolved in DMSO to the appropriate concentration. All titration experiment were performed for a total of 6 hours prior to being harvested and were kept at 37° C., 5% CO2, and 95% humidity once treatment was applied until right before harvesting. Cells were washed twice with PBS before being harvested.
as §1
Development of a Knock-in Cell Line with BromoTag fused to endogenous Brd2 using CRISPR. […] To this end, the endogenous BET family protein Brd2 was chosen as a model target, due to the availability of well-established antibody for Brd2 detection, and expression of a single protein isoform as well detected band in the western blot (Filippakopoulos, P.; Knapp, S., Nat Rev Drug Discov. 2014, 13 (5), 337-356). […]

[3] = target: T2, BromoTag-Brd2 (Homo sapiens, UniProt O60885+P40337, L387A); experiment: Time-course degradation assay in heterozygous BromoTag-Brd2 HEK293 cells; type: cell-based; conditions: 500 nM 47, 1 μM 48; over 36 h
T2 construct: comprising residues 368-440 of human Brd4; Brd2 (endogenous protein, fusion partner in the same polypeptide); eGFP-P2A (upstream marker in the knock-in cassette) (N, cleaved yes); expressed in transfected cells; host or cells: HEK293, heterozygous CRISPR knock-in at the endogenous BRD2 locus
Method: Time-course Degradation Assay. Time-course degradation assays using PROTACs AGB1, AGB2, and AGB3 were performed on the genotype verified heterozygous BromoTag-Brd2 HEK293 cell line. Heterozygous BromoTag-Brd2 HEK293 cells were plated at a density of 5×10^5 cells per well of a 6 healthy plate a day prior to initiation of the Timecourse assay. PROTAC's AGB1 & AGB2 were diluted in DMSO to a concentration of 1 mM prior to being further diluted 1:2000 in 2 mL of DMEM to a concentration of 500 nM per timepoint. PROTAC AGB3 was diluted in DMSO to a concentration of 2 mM prior to being further diluted 1:2000 in 2 mL of DMEM to a concentration of 1 μM per timepoint. Timepoint range was between 0-36 h. Treatment was applied in a staggered fashion to enable all timepoints to be harvested at the same time.
Western Blotting. All cells were harvested on ice with RIPA lysis, and extraction buffer (ThermoFisher Scientific, 89901) supplemented with protease inhibitor cocktail (Merck, 11697498001) and Benzonase® Nuclease (Sigma, E1014) before being store at −20° C. prior to use. Total protein quantity was determined using the BCA protein assay (#23225, Pierce, Rockford, Illinois). Protein concentration was determined using the BCA assay (ThermoFisher Scientific, 23225). Samples were then prepared and loaded onto NuPAGE™ 4-12% Bis-Tris Midi gels (ThermoFisher Scientific, WG1403A), followed by the transfer of the proteins onto nitrocellulose membranes (EMD Millipore). The membranes were blocked for 1 h prior to incubation with the primary antibodies using 5% Milk TBST. Membranes were probed for Brd2 (Abcam, Ab139690, 1:1000), Brd3 (Abcam, Ab50818, 1:4000), Brd4 (Abcam, Ab128874, 1:1000) or our polyclonal Brd4^BD2 L387A antibody. […] All western blots were analysed for band intensities using Image Lab from Bio-Rad (LI-COR, Biosciences). The data extracted from these blots were then plotted and analysed using Prism (v. 8.2.0, GraphPad).

[4] = target: T3, VHL (VCB protein) (Homo sapiens, UniProt P40337); experiment: Fluorescence polarization competitive binding assay, binary binding; conditions: compound alone; displacement of HIF-1a peptide probe; read-out: binary affinity to VHL Kd
T3 construct: N-terminally Hiss-tagged VHL (54-213); His6 (N, cleaved yes); made in house; host or cells: E. coli
Method: (§2) Protein Expression and Purification. […] The complex was further purified by anion exchange followed by gel filtration chromatography.
(§3) Fluorescence Polarization Binding Assay. […] All components were dissolved from stock solutions using 100 mM Bis-Tris propane, 100 mM NaCl, 1 mM DTT, pH 7.0, to yield a final assay volume of 15 μL. DMSO was added as appropriate to ensure a final concentration of 2% v/v. […] Percentage displacement values were obtained by normalization of controls were plotted against Log[Compound]. IC50 values were determined for each titration using nonlinear regression analysis with Prism (v. 9.1.0, GraphPad). […] Cooperativity values (a) for each PROTAC were calculated using the ratio: α=binary Kd (−bromodomain)/ternary Kd (+bromodomain).

[5] = target: T4, VHL, compound preincubated with Brd4^BD2 L387A (Homo sapiens, UniProt O60885+P40337, L387A); experiment: Fluorescence polarization competitive binding assay, ternary complex binding; conditions: displacement of HIF-1a peptide probe, read-out: ternary binding affinity Kd
T4 construct: N-terminally Hiss-tagged VHL (54-213); N-terminally His6-tagged Brd4-BD2^L387A (333-460) was expressed in E. coli; His6 (N, cleaved yes); made in house; host or cells: E. coli
Method: as §2, §3

[6] = target: T2, BromoTag-Brd2; experiment: Dose-response degradation assay (western blot, 6 h) in heterozygous BromoTag-Brd2 HEK293 cells; type: cell-based; conditions: 6 h; for pDC50: 8-point 10 μM-1 nM, mean (±S.E.) of two repeats
Method: Dose-response Degradation Assays. All dose-response degradation assays were performed on the genotype verified heterozygous BromoTag-Brd2 HEK293 cell line. Heterozygous BromoTag-Brd2 HEK293 cells were plated at a density of 5×10^5 cells per well of a six healthy plate a day before initiation of the titration experiment. PROTAC compounds were dissolved in DMSO at a concentration of 10 mM, from these stock concentrations, PROTAC compounds were diluted to appropriate concentrations using DMSO in the range of 10 μM-1 nM. […] Control compounds such as MZ1, cis-MZ1 were similarly dissolved in DMSO to the appropriate concentration. […] Cells were washed twice with PBS before being harvested.
Western Blotting. […] The membranes were blocked for 1 h prior to incubation with the primary antibodies using 5% Milk TBST. […] Following overnight incubation with the primary antibodies at 4° C., the membranes were incubated with secondary antibodies (Anti-rabbit, Abcam AB216773, 1:5000 or anti-mouse, Abcam AB216774, 1:5000) and hFAB™ Rhodamine Anti-Tubulin Antibody (Biorad, 12004165, 1:10000) for one h and then imaged with a Bio-Rad imager (LI-COR Biosciences). All western blots were analysed for band intensities using Image Lab from Bio-Rad (LI-COR, Biosciences). The data extracted from these blots were then plotted and analysed using Prism (v. 8.2.0, GraphPad).

`CC[C@@H](C(=O)OCCOCCCOCC(=O)N[C@H](C(=O)N1C[C@H](O)C[C@H]1C(=O)N[C@@H](C)c1ccc(-c2scnc2C)cc1)C(C)(C)C)[C@@H]1N=C(c2ccc(Cl)cc2)c2c(sc(C)c2C)-n2c(C)nnc21` (relative stereo) [ET-OARV-771 (25), 2-(3-(2-(((S)-1-((2S,4R)-4-hydroxy-2-(((S)-1-(4-(4-methylthiazol-5-yl)phenyl)ethyl)carbamoyl)pyrrolidin-1-yl)-3,3-dimethyl-1-oxobutan-2-yl)amino)-2-oxoethoxy)propoxy)ethyl (R*)-2-((S*)-4-(4-chlorophenyl)-2,3,9-trimethyl-6H-thieno[3,2-f][1,2,4]triazolo[4,3-a][1,4]diazepin-6-yl)butanoate] was tested, and the “off-target degradation of Brd3” value ([1]; at 1 μM, 6 h) was “minor off-target degradation” and the “off-target degradation of untagged Brd2 or the other endogenous BET proteins” value [2] was “no observable off-target degradation”.

With `CC[C@@H](C(=O)OCCOCCCOCC(=O)N[C@H](C(=O)N1C[C@H](O)C[C@H]1C(=O)N[C@@H](C)c1ccc(-c2scnc2C)cc1)C(C)(C)C)[C@@H]1N=C(c2ccc(Cl)cc2)c2c(sc(C)c2C)-n2c(C)nnc21` (single isomer, unassigned) [AGB2 (47)] the “extent of BromoTag-Brd2 degradation in the time course” value [3] was “near complete target degradation”, the “off-target degradation of Brd3” value ([1]; at 100-1,000 nM) was “minor off-target degradation” and the Kd [4] was 45 nM. For the same compound, the Kd [5] was 12 nM.

With `CC[C@@H](C(=O)NCCOCCOCCOCC(=O)N[C@H](C(=O)N1C[C@H](O)C[C@H]1C(=O)NCc1ccc(-c2scnc2C)cc1)C(C)(C)C)[C@@H]1N=C(c2ccc(Cl)cc2)c2c(sc(C)c2C)-n2c(C)nnc21` (single isomer, unassigned) [AGB3 (48)] the “extent of BromoTag-Brd2 degradation in the time course” value [3] was ~80%, the Kd [4] was 102 nM and the DC50 ([6]; range over the two antibodies) was 210 to 290 nM. It also gave a pDC50 ([6]; Ab: Brd4^BD2 L387A, single stereoisomers) of 6.5 ± 0.3, a pDC50 ([6]; Ab: BromoTag-Brd2, single stereoisomers) of 6.7 ± 0.1 and a Dmax ([6]; HEK293, Ab: Brd4^BD2 L387A, single stereoisomers) of 92%. For the same compound, the Kd [5] was 9 nM.
